Laboratory results as given in patent publication US6001359A, “Diagnosis of colon carcinoma using monoclonal antibodies to human influx peptide transporter” (Eli Lilly and Company, priority 1997, dated 1999).

How the values were obtained:
[1] = target: T1, influx peptide transporter (Homo sapiens, UniProt Q12864); experiment: [14C]cephalexin uptake by CHO-K1 transfectant Clone 9 (plasmid pPSJ179); format: cell-based
T1 construct: about 120 kDa antigen of MAb PTC13G6
T1 sequence (Q12864 23-832): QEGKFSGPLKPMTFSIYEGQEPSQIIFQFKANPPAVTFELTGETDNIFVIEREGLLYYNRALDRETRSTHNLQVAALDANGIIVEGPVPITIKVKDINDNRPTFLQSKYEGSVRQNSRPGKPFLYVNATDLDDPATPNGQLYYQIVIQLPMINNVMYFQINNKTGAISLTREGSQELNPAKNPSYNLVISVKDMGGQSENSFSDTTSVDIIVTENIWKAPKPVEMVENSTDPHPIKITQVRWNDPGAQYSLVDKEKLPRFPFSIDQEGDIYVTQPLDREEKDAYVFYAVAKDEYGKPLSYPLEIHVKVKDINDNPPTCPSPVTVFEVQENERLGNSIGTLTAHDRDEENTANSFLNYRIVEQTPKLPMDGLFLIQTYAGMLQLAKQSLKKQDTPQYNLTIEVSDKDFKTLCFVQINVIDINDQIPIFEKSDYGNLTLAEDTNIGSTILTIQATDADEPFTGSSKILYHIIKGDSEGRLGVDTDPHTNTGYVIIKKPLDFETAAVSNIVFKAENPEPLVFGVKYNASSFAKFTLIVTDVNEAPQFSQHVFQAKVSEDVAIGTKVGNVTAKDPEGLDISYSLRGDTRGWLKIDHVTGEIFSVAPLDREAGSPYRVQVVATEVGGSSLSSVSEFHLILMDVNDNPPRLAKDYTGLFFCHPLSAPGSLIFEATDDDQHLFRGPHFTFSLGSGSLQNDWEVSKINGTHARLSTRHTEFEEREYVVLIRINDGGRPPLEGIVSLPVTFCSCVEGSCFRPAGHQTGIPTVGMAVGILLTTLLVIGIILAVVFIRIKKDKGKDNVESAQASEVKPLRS
Experimental: (§1) The samples were incubated at room temperature for 20 minutes.

[2] = system: CHO-K1 cells; experiment: [14C]cephalexin uptake by control CHO-K1 cells (plasmid pRc/RSV); format: cell-based, Chinese hamster
Experimental: as §1

CC(C)C[C@H](NC(=O)[C@@H](O)[C@H](N)Cc1ccccc1)C(=O)O [bestatin]
[14C]-Cephalexin Uptake in presence of bestatin ([1]; 1 mM [14C]cephalexin + 15 mM bestatin): 0.42 ± 0.08 nmol/mg total cell protein
effect on uptake of 1 mM cephalexin by the transfectant ([1]; 15 mM bestatin or 25 mM unlabelled cephalexin): inhibited
drug uptake on coincubation, compared with control cells ([1]; coincubation with 1 mM [14C]cephalexin): decreased drug uptake in the representative transfectant (Clone 9) to the level of the control cells
[14C]-Cephalexin Uptake in presence of bestatin ([2]; Control cells, 1 mM [14C]cephalexin + 15 mM bestatin): 0.38 ± 0.08 nmol/mg total cell protein
effect on transport of 1 mM [14C]cephalexin by the control cells ([2]; control cells, bestatin or cephalexin): not inhibited significantly
